Test results as given in US10800834B2, “HER-1, HER-3 and IGF-1R compositions and uses thereof” (OHIO STATE INNOVATION FOUNDATION, priority 2013, dated 2020).
“Also recorded” adds a separate entry of the source.

Tests used:
[1] = system: BxPC-3, MCF-7 and JIMT-1 cancer cells; assay: MTT proliferation assay with IGF-1R peptide mimics; type: cell-based, human; details: 25, 50, 100, 150 μg/ml, three days
Procedure: The effects of treatment with the IGF-1R peptide mimics were evaluated as inhibitors on proliferation of human pancreatic (BxPC-3) and breast (MCF-7 and JIMT-1) cancer cells. Ligand binding to the IGF-1 receptor results in activation that causes increase proliferation of the receptor and intracellular signaling. Accordingly, the effects of the IGF-1R peptide mimics on ligand binding inhibition and inhibition of cancer cell line proliferation were determined. To measure proliferation, the MTT assay was used where the cells were treated with the inhibitors at different concentrations and incubated for three days before adding MTT.

[2] = system: BxPC-3 pancreatic and JIMT-1 breast cancer cells; assay: SCID transplantable breast and pancreatic mouse model, IGF-1R peptides; type: in vivo; details: 200 μg i.v. weekly for 7 weeks; P values <0.05
Procedure: To test the in vivo effects of the chimeric peptides, a transplantable breast and pancreatic mouse model was used. BxPC-3 pancreatic and JIMT-1 breast cancer cells were injected subcutaneously into the flanks of SCID mice. After tumor challenge, the mice were treated intravenously with the IGF-1R peptide mimics starting at day zero (day of tumor challenge) and weekly for a total of 7 weeks. Tumor growth was monitored twice weekly and at the end of treatment, all mice were euthanized and the tumors extracted and weighed and the percentage tumor weight calculated.

IGF-1R = molecular target: T1, IGF-1R (Homo sapiens, UniProt P08069); assay: Human-phospho-IGF-1R sandwich ELISA; type: cell-based; details: MCF-7, JIMT-1 and BxPC-3 cells
T1 construct: IGF-1 signaling in MCF-7, JIMT-1 and BxPC-3 cells were analyzed using protein lysates after treatment; endogenous in cells; host or cells: MCF-7, JIMT-1 (human breast cancer) and BxPC-3 (human pancreatic cancer) cells
Procedure: The effects of chimeric peptides and antipeptide antibodies on IGF-1 signaling in MCF-7, JIMT-1 and BxPC-3 cells were analyzed using protein lysates after treatment and measurement of phosphorylated levels of the receptors in a sandwich ELISA method using Human-phospho-IGF-1R ELISA kit from R&D diagnostics. […] FIG. 22 A-C is treatment with peptide mimics and FIG. 22-D-F is treatment with peptide vaccine antibodies.

[3] = system: New Zealand white outbred rabbits; assay: Immunogenicity of MVF HER-3 peptide constructs in rabbits (ELISA titers); type: in vivo, rabbit
Procedure: Two female New Zealand white outbred rabbits (Harlan) were immunized intramuscularly with 1 mg of MVF HER-3 (237-269) or MVF HER-3 (461-479) peptide dissolved in 500 μL PBS and emulsified in 500 μL of Montanide ISA720 vehicle with 100 μg muramyl dipeptide adjuvant, nor-MDP (N-acetylglucosamine-3yl-acetyl-L-alanyl-D-isoglutamine). Subsequent booster injections were given every three weeks after primary immunization. Sera of rabbits immunized with either MVF peptide were collected weekly, and complement was inactivated by heating to 56° C. for 30 minutes. The titer of anti-HER-3 peptide antibodies were quantified by ELISA. The MVF HER-3 (237-269) and MVF HER-3 (461-479) peptides were highly immunogenic by three weeks after the third immunization. Antibody titers against MVF HER-3 (461-479) and MVF HER-3 (237-269) were ≥32,000 and ≥128,000, respectively (FIGS. 9 A & B). High antibody titers were also generated against B cell epitope constructs. HER-3 (461-479) and HER-3 (237-269) antibody titers were ≥16,000 and ≥128,000, respectively (Data not shown). Total IgG was purified from high-titered sera on a protein A/G column (Pierce, Rockford, Ill.) and eluted antibodies were concentrated and exchanged in PBS using 100 kDa cutoff centrifuge filter units (Millipore). Antibody concentrations were determined by Coomassie plus protein assay reagent kit (Pierce).

BXPC3 cells [4] = assay: BALB/c SCID transplantable mouse model, BXPC3, HER-3 peptide mimics; type: in vivo; details: BXPC3, peptide mimics i.v. weekly
Procedure: To test the in vivo effects of the peptide mimics, two transplantable mouse models were used. Mice 4-5 weeks old were challenged with either BXPC3 or JIMT-1 cells subcutaneously into the flank. After tumor challenge, mice were treated intravenously with the peptide mimics starting at day zero (day of tumor challenge) and weekly for a total of 8-9 treatments. Tumor growth was monitored twice weekly and at the end of treatment. All mice were euthanized and weighed. Tumors were also extracted and weighed. Results display tumor volume and % tumor weight (FIG. 16 A-D). Both peptide constructs had the ability to attenuate tumor growth in mice challenged with BXPC3 cells. […] As a result, only the HER-3 (461-479) peptide was used in JIMT-1 tumor model.

BxPC3 cells [5] = assay: MTT inhibition assay with HER-3 peptide mimics, BxPC3; type: cell-based, human; details: 72 hours, HRG stimulated
Procedure: The HER-3 peptide mimics and peptide vaccine antibodies may provide anti-tumor activity by blocking dimerization or ligand binding of the HER-3 receptor. To test the ability of the chimeric peptides to elicit antitumor effects, HER-3 positive cells were examined in a MTT inhibition assay. The anti-proliferative effects of the peptide mimics were tested at various concentrations (FIG. 13). Taxol, an inhibitor of mitosis, was used as a positive control (data not shown). Cells were seeded in 96 well flat bottom plates at 1×10^4 cells/well in 100 μl growth media and allowed to adhere overnight at 37° C. Media was removed from the wells and replaced with HER3 peptides made up in 1% growth media. Plates were incubated for 1 hour at 37° C., and subsequently stimulated with either 50 ng/mL HRG. Plates were incubated an additional 72 hours at 37° C. before 25 μL of 5 mg/mL MTT was added to each well. Plates were incubated for 2 hours at 37° C., then 100 μL extraction buffer (20% SDA, 50% DMF, pH 4.7) was added. Plates were incubated overnight at 37° C. and read on an ELISA reader at 570 nm. Percent inhibition was calculated by the following equation: (untreated-treated)/untreated×100. Error bars represent SEM of three separate experiments. […] The HER-3 peptide mimics inhibited proliferation of BXPC3, MCF-7 and JIMT-1 cell lines in a dose-dependent manner. […]

Met-1 cells = assay: FVB/n Met-1 transplantable breast tumor model; type: in vivo, mouse; details: peptide mimics i.v. weekly; for tumor growth and development: vs untreated and irrelevant peptide
Procedure: Antitumor effects of immunization with HER-1 peptide vaccines and chimeric peptides in Fvb/n breast cancer model The Fvb/n transplantable model of HER-family dependent breast cancer represents a good model for human breast cancer. The peptide vaccines were dissolved in water and emulsified in Montanide ISA 720 (1:1) and […] (N-acetylglucosamine-3yl-acetyl-1-alanyl-D-isoglutamine). Female wild-type FVB/n mice (Charles River Laboratories) at the age of 5 to 6 weeks were immunized three times at 3-week intervals with […], and 14 days after the third immunization, the mice were challenged s.c. with Met-1 cells (200,000 per mouse). Met-1 cells were derived from the PyMT-transgenic mouse model with FVB/n background. Tumor growth was monitored for up to 6 weeks after challenge. During immunization, blood was drawn biweekly and used in ELISA to monitor Ab titers. In the case of treatment with the chimeric peptides, the mice were simply challenged with Met-1 cells and treated weekly i.v. with […] for up to 6 weeks beginning at day 0. The mice were euthanized at the end of treatment and tumors extracted and weighed.
Tumor tissues were formalin fixed, embedded in paraffin, and stained immunohistochemically for CD31 and Ki-67. The tissue blocks were cut into […], deparaffinized in xylol, and then rehydrated with different grades of alcohol. The rehydrated sections were then washed with distilled water and placed in a microwave oven for 15 minutes. The slides were then blocked and incubated for 40 minutes at 20° C. with primary Abs specific for Ki-67 and CD31.
To evaluate the inhibitory effects of the peptide vaccines in vivo, the FVB/n transplantable mouse model was used in which Met-1 cells from FVB/n background were injected in the mammary fat pad of wild-type FVB/n mice after immunization with the chimeric MVF HER-1 peptides as shown in the immunization schedule (data not shown). Tumor development in this model is dependent on the HER family receptor overexpression. All mice were immunized at 5 to 6 weeks of age and received two boosters at 3-week intervals. As depicted in FIG. 5, the vaccine constructs were immunogenic in the mice, and all of the mice had relatively high titers of the Abs (greater than 40,000). Mice were challenged with Met-1 cells and monitored weekly for 6 weeks.
To test the in vivo effects of the peptide mimics, the same FVB/n model was used as in the case of immunization, but in this experiment, wild-type mice were challenged with Met-1 cells and treated i.v. with the peptide mimics. […] In assessing how the peptide inhibitors exert their effects in vivo, the tumor sections were analyzed after treatment with the peptide mimics for blood vessel density and actively proliferating cells. […] The effect on proliferating cells was most evident in the case of treatment with the 382-410 and the 418-435 constructs (FIG. 7C).

A549 lung cancer cells = assay: BALB/c SCID transplantable lung tumor model; type: in vivo, mouse; parameters: dose or concentration left out as unconfirmed; details: i.v. weekly, peptide mimics or cetuximab
Procedure: […] Tumor growth was measured twice weekly using vernier calipers, and at the end of the experiment, the tumors were extracted and weighed.

[6] = Immunization of transgenic mice with chimeric peptides (summary statement); type: in vivo, mouse; details: immunization of transgenic mice with one or more of the chimeric peptides

ACPPNTYRFEGWRCVDRDF (Ac-ACPPNTYRFEGWRCVDRDF-NH2; cysteine pairing not given here; listed as Homo sapiens) [IGF-1R (234-252), peptide mimic acetylated and amidated]
inhibition of proliferation (MTT) [1]: inhibition of all three cell lines which was dose dependent; also recorded: dose-dependent inhibition of proliferation | percentage tumor weight [2]: significantly decreased the percentage tumor weight | phosphorylated IGF-1R, treatment with peptides (IGF-1R): able to downregulate the expression of phosphorylated IGF-1R

ERLDIKHNRPRRDCVAEGK (Ac-ERLDIKHNRPRRDCVAEGK-NH2; listed as Homo sapiens) [HER-3 (461-479), peptide mimic acetylated and amidated]
antibody titers against B cell epitope constructs ([3]; sera of rabbits immunized with MVF HER-3 peptides, data not shown): ≥ 16,000 | % tumor weight (BXPC3 cells [4]): significantly decreased the % tumor weight | tumor growth (BXPC3 cells [4]): greater anti-tumor effects

FVMLNYNTNSSHALRQLRLTQLTE (Ac-FVMLNYNTNSSHALRQLRLTQLTE-NH2; listed as Homo sapiens) [HER-3 (99-122), peptide mimic acetylated and amidated]
Percent inhibition of proliferation (BxPC3 cells [5]): ~80%

KIEFMYPPPYLDNERSNGTI [irrelevant peptide, negative control peptide, reference compound]
tumor growth and development (Met-1 cells): no inhibitory effects

LIQAWPENRTDLHAFENLEIIRGRTKQHG (Ac-LIQAWPENRTDLHAFENLEIIRGRTKQHG-NH2; listed as Homo sapiens) [HER-1 (382-410), peptide mimic acetylated and amidated]
delay in tumor onset (Met-1 cells): approximately 2 weeks | microvascular density (CD31) in tumor sections (Met-1 cells): significant reduction in microvascular density | percentage tumor weight (Met-1 cells): greater inhibitory effects | proliferating cells (Ki-67) in tumor sections (Met-1 cells): most evident | tumor growth and development (Met-1 cells): decrease in tumor growth and development | tumor growth and development (A549 lung cancer cells): significantly delayed tumor growth and development

LLFRVAGLESLGDLFPNLTVIRGWKL (Ac-LLFRVAGLESLGDLFPNLTVIRGWKL-NH2; listed as Homo sapiens) [IGF-1R (56-81), peptide mimic acetylated and amidated]
inhibition of proliferation (MTT) [1]: inhibition of all three cell lines which was dose dependent; also recorded: dose-dependent inhibition of proliferation | percentage tumor weight [2]: significantly decreased the percentage tumor weight | phosphorylated IGF-1R, treatment with peptides (IGF-1R): able to downregulate the expression of phosphorylated IGF-1R

MVF HER-3 (461-479): HER-3 (461-479) synthesized collinearly with modified MVF epitope (SEQ ID NO:12) and GPSL linker (KLLSLIKGVIVHRLEGVEGPSLERLDIKHNRPRRDCVAEGK)
Antibody titers against MVF peptide ([3]; three weeks after the third immunization): ≥ 32,000 | tumor growth after immunization [6]: significant delay of tumor growth

SLNITSLGLRSLKEISDG (Ac-SLNITSLGLRSLKEISDG-NH2; listed as Homo sapiens) [HER-1 (418-435), peptide mimic acetylated and amidated]
delay in tumor onset (Met-1 cells): approximately 2 weeks | microvascular density (CD31) in tumor sections (Met-1 cells): significant reduction in microvascular density | percentage tumor weight (Met-1 cells): greater inhibitory effects | proliferating cells (Ki-67) in tumor sections (Met-1 cells): most evident | tumor growth and development (Met-1 cells): decrease in tumor growth and development | tumor growth and development (A549 lung cancer cells): significantly delayed tumor growth and development
